# Measurements reported in patent publication US20200071310A1, “N-ARYL PYRAZOLES AS NRF2 REGULATORS” (GLAXOSMITHKLINE INTELLECTUAL PROPERTY DEVELOPMENT LIMITED, priority 2016, published 2020).
# Counter-ions that a name gives are not always drawn.
# Experiments:
# [1] = tested on: NQO1 specific enzyme activity in BEAS-2B cells; assay: BEAS-2B NQO1 MTT Assay; type: cell-based; conditions: Homo sapiens; NQO1 specific activity induction, BEAS-2B cells, 48 hours; read-out: EC50
# Method in brief: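 BEAS-2B cells plated overnight, treated with compound for 48 h at 37° C, then lysed; NQO1 activity measured kinetically by MTT cocktail at 570 nm over 30 min, with lysate aliquot for Cell Titer Glo. pEC50 from 3-parameter fit of ΔOD/min versus log concentration.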
# [2] = molecular target: T1, full length Keap1 protein / full length NRF2 protein (Homo sapiens, UniProt Q14145); assay: NRF2-Keap1 TR-FRET Low Protein Assay; type: binding
# T1 construct: full length NRF2 protein and full length Keap1 protein (Keap1 exists a dimer) are used; His
# T1 sequence (Q14145 whole entry): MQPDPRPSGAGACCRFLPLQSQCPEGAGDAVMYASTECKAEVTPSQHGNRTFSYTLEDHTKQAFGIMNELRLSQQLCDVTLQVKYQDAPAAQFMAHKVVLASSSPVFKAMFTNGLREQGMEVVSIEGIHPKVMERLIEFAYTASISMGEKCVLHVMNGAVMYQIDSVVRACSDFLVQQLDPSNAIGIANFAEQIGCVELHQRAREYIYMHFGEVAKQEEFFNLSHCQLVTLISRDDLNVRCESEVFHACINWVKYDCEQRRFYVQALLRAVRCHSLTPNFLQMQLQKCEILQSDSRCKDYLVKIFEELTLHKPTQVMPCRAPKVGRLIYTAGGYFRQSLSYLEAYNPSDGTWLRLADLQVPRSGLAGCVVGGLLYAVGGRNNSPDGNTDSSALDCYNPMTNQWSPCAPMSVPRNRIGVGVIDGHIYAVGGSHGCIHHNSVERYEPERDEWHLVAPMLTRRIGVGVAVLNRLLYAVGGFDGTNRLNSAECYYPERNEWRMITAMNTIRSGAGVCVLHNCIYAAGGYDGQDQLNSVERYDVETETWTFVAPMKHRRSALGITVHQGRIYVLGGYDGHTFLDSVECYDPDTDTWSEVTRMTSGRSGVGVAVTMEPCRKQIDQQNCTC
# Excerpt: In the NRF2-Keap1 TR-FRET (time-resolved fluorescence resonance energy transfer) low protein assay, full length NRF2 protein and full length Keap1 protein (Keap1 exists a dimer) are used. The assay detects a compound's ability to displace the binding of Keap1 FlagHis with biotinylated Avi-NRF2 protein. Biotin-NRF2 binds to streptavidin-europium (a component of the detection mix) and Keap1 FlagHis is recognized by anti-Flag APC (allophycocyanin) antibody (also a component of the detection mix). If binding occurs between the two proteins, there will be an energy transfer from the Eu+3 (donor) at 615 nm to the APC (acceptor) at 665 nm. A potential NRF2 inhibitor will cause a reduction in the TR-FRET signal by interfering with the binding of Keap1 to NRF2.
# Ten nanoliters of 100× compound dose response curves (serial 3-fold dilutions) in DMSO were stamped using an Echo liquid handling system (Labcyte) into 384-well, low volume, black assay plates (Greiner, #784076), with DMSO in columns 6 and 18. An additional 90 nl DMSO was added to each well, to bring the total volume to 100 nl per well. The top concentration of compound was located in columns 1 and 13, with the serial dilutions going across the row. All reagents were diluted in assay buffer (50 mM Tris, pH 8.0, 5 mM MgCl2, 100 mM NaCl, 0.005% BSA, 1 mM DTT, and 2 mM CHAPS. The BSA, DTT, and CHAPS were added to the assay buffer on the day of assay. Using a Multidrop Combi (Thermo Electron Corporation) equipped with a metal tip dispenser, 5 ul of 1.25 nM Keap1 FlagHis protein was added to all wells of the compound plate, with the exception of the wells in column 18. Wells in column 18 received 5 ul of assay buffer instead. Plates were centrifuged at 500 rpm for 1 minute, covered with a plate lid, and incubated at 37° C. for 2.25 hours. Plates were then removed from the incubator and allowed to cool to RT for 15 minutes. Five microliters of 2.5 nM biotin-NRF2 protein was then added to all wells of the plates and the plates were spun at 500 rpm for 1 minute, followed by incubating at 4° C. for 1.25 hours. The plates were then allowed to warm to RT for 15 minutes, followed by the addition of 10 ul of detection mix (1 nM Streptavidin Eu+W1024 and 5 ug/ml mouse anti-DYKDDDDK IgG conjugated to SureLight APC antibody; both from Columbia Biosciences) to all wells. Plates were spun at 500 rpm for 1 minute, incubated for 1 hour at RT, and read on an Envision plate reader using a 320 nm excitation filter and 615 nm and 665 nm emission filters. Compound response (% inhibition) and potency (pIC50) were calculated based on the ratio of the two emissions (665 nm/615 nm) and then the transformed data was normalized against controls in the assay (control 1=1% DMSO in the presence of NRF2 and Keap1 protein and control 2=1% DMSO in the presence of only the NRF2 protein). Data analysis was handled using the software package Abase XE (Surrey, United Kingdom). The % inhibition values were calculated from the ratio (transformed) data by the equation:
# 100−(100*(compound response−average control 2)/(average control 1−average control2)).
# For calculation of pIC50s, Abase XE used a four parameter equation.
# IC50s<10 nM (+++++), IC50s 10-100 nM (++++), IC50s 100 nM-1 uM (+++), IC50s 1-10 uM (++). and IC50s 10 uM-100 uM (+), IC50s>100 uM (−), or were not determined (ND).
Structure (SMILES),EC50 [2] [nM],EC50 [1] [nM]
"COc1ccccc1S(=O)(=O)N(Cc1cccc(-n2ncc(C(=O)O)c2[C@@H]2C[C@H]2c2cn(C)nn2)c1)C1CC1 (racemic) [Example 53, 1-(3-((N-cyclopropyl-2-methoxyphenylsulfonamido)methyl)phenyl)-5-((trans)-2-(1-methyl-1H-1,2,3-triazol-4-yl)cyclopropyl)-1H-pyrazole-4-carboxylic acid]",10000 to 100000,100 to 1000
"CCOc1ccc(Br)cc1CN(C)Cc1cccc(-n2ncc(C(=O)O)c2[C@@H]2C[C@H]2c2cn(C)nn2)c1 (racemic) [Example 54, 1-(3-(((5-bromo-2-ethoxybenzyl)(methyl)amino)methyl)phenyl)-5-((trans)-2-(1-methyl-1H-1,2,3-triazol-4-yl)cyclopropyl)-1H-pyrazole-4-carboxylic acid trifluoroacetate]",1000 to 10000,100 to 1000
CCCCCCN(Cc1cccc(-n2ncc(C(=O)O)c2[C@@H]2C[C@H]2c2cnn(C)c2)c1)S(=O)(=O)c1ccccc1C (racemic) [Example 56],10000 to 100000,100 to 1000
"Cc1cc([C@@H]2C[C@H]2c2c(C(=O)O)cnn2-c2cccc(CN3C[C@@H](C)Cc4cc(C(F)(F)F)ccc4S3(=O)=O)c2)on1 (racemic) [Example 57, 1-(3-(((S)-4-Methyl-1,1-dioxido-7-(trifluoromethyl)-4,5-dihydrobenzo[f][1,2]thiazepin-2(3H)-yl)methyl)phenyl)-5-(trans-2-(3-methylisoxazol-5-yl)cyclopropyl)-1H-pyrazole-4-carboxylic acid]",1000 to 10000,100 to 1000
"CCCCCCN(Cc1cccc(-n2ncc(C(=O)O)c2[C@@H]2C[C@H]2c2cn(C)nn2)c1)S(=O)(=O)c1ccc(Oc2ccccc2)cc1 (relative stereo) [Example 36, 1-(3-((N-hexyl-4-phenoxyphenylsulfonamido)methyl)phenyl)-5-((trans)-2-(1-methyl-1H-1,2,3-triazol-4-yl)-cyclopropyl)-1H-pyrazole-4-carboxylic acid]",100 to 1000,100 to 1000
"CN(Cc1cccc(-n2ncc(C(=O)O)c2[C@@H]2C[C@H]2c2cn(C)nn2)c1)S(=O)(=O)c1ccccc1Oc1ccccc1 (relative stereo) [Example 38, 5-((trans)-2-(1-methyl-1H-1,2,3-triazol-4-yl)cyclo-propyl)-1-(3-((N-methyl-2-phenoxyphenyl-sulfonamido)-methyl)phenyl)-1H-pyrazole-4-carboxylic acid]",100 to 1000,1000 to 10000
"CN(Cc1cccc(-n2ncc(C(=O)O)c2[C@@H]2C[C@H]2c2cn(C)nn2)c1)S(=O)(=O)c1ccc(-c2ccccc2)cc1 (relative stereo) [Example 39, 5-((trans)-2-(1-methyl-1H-1,2,3-triazol-4-yl)cyclo-propyl)-1-(3-((N-methyl-[1,1′-biphenyl]-4-ylsulfonamido)-methyl)phenyl)-1H-pyrazole-4-carboxylic acid]",100 to 1000,1000 to 10000
CC[C@@H]1Cc2ccccc2CN(Cc2cccc(-n3ncc(C(=O)O)c3[C@@H]3C[C@H]3c3cn(C)nn3)c2)C1 [Example 10],100 to 1000,1000 to 10000
CC[C@H]1Cc2ccccc2CN(Cc2cccc(-n3ncc(C(=O)O)c3[C@@H]3C[C@H]3c3cn(C)nn3)c2)C1 [Example 11],100 to 1000,1000 to 10000
CCC1c2ccccc2OC(C)(C)CN1Cc1cccc(-n2ncc(C(=O)O)c2[C@@H]2C[C@H]2c2cn(C)nn2)c1 (some centres unmarked) [Example 12],10000 to 100000,1000 to 10000
"C[C@H]1Cc2ccccc2S(=O)(=O)N(Cc2cccc(-n3ncc(C(=O)O)c3[C@@H]3C[C@H]3c3cn(C)nn3)c2)C1 [Example 15, 1-(3-(((S)-4-methyl-1,1-dioxido-4,5-dihydrobenzo[f][1,2]thiazepin-2(3H)-yl)methyl)phenyl)-5-((trans)-2-(1-methyl-1H-1,2,3-triazol-4-yl)cyclopropyl)-1H-pyrazole-4-carboxylic acid]",100 to 1000,1000 to 10000
"C[C@H]1Cc2ccc(C(F)(F)F)cc2S(=O)(=O)N([C@H]2CCc3c2cccc3-n2ncc(C(=O)O)c2[C@@H]2C[C@H]2c2cn(C)nn2)C1 [Example 26a, 1-((S)-1-((S)-4-Methyl-1,1-dioxido-8-(trifluoromethyl)-4,5-dihydrobenzo[f][1,2]thiazepin-2(3H)-yl)-2,3-dihydro-1H-inden-4-yl)-5-((1R,2R)-2-(1-methyl-1H-1,2,3-triazol-4-yl)cyclopropyl)-1H-pyrazole-4-carboxylic acid]",100 to 1000,100 to 1000

# Second part, led by results:
EC50 [2] [nM],Structure (SMILES),EC50 [1] [nM]
10 to 100,"CC(c1cccc(-n2ncc(C(=O)O)c2[C@@H]2C[C@H]2c2cn(C)nn2)c1)N1C[C@@H](C)Cc2ccc(C(F)(F)F)cc2S1(=O)=O (single isomer, unassigned) [Example 6, 1-(3-((R or S)-1-((S)-4-Methyl-1,1-dioxido-8-(trifluoromethyl)-4,5-dihydrobenzo[f][1,2]thiazepin-2(3H)-yl)ethyl)phenyl)-5-((1R,2R)-2-(1-methyl-1H-1,2,3-triazol-4-yl)cyclopropyl)-1H-pyrazole-4-carboxylic acid]",100 to 1000
10 to 100,CC[C@@H]1CN(Cc2cccc(-n3ncc(C(=O)O)c3[C@@H]3C[C@H]3c3cn(C)nn3)c2)S(=O)(=O)c2ccccc2O1 [Example 3],100 to 1000
10 to 100,CC[C@H]1Cc2ccccc2S(=O)(=O)N(Cc2cccc(-n3ncc(C(=O)O)c3[C@@H]3C[C@H]3c3cn(C)nn3)c2)C1 [Example 4],100 to 1000
< 10,"CC[C@H]1Cc2ccc(C(F)(F)F)cc2S(=O)(=O)N(Cc2cccc(-n3ncc(C(=O)O)c3[C@@H]3C[C@H]3c3cn(C)nn3)c2)C1 [Example 20, 1-(3-(((S)-4-ethyl-1,1-dioxido-8-(trifluoromethyl)-4,5-dihydrobenzo[f][1,2]thiazepin-2(3H)-yl)methyl)phenyl)-5-((1R,2R)-2-(1-methyl-1H-1,2,3-triazol-4-yl)cyclopropyl)-1H-pyrazole-4-carboxylic acid]",1 to 10
< 10,"CCCC[C@H]1Cc2ccc(C(F)(F)F)cc2S(=O)(=O)N(Cc2cccc(-n3ncc(C(=O)O)c3[C@@H]3C[C@H]3c3cn(C)nn3)c2)C1 [Example 21, 1-(3-(((S)-4-butyl-1,1-dioxido-8-(trifluoromethyl)-4,5-dihydrobenzo[f][1,2]thiazepin-2(3H)-yl)methyl)phenyl)-5-((1R,2R)-2-(1-methyl-1H-1,2,3-triazol-4-yl)cyclopropyl)-1H-pyrazole-4-carboxylic acid]",< 1
< 10,"CC[C@H]1Cc2ccc(Br)cc2S(=O)(=O)N(Cc2cccc(-n3ncc(C(=O)O)c3[C@@H]3C[C@H]3c3cn(C)nn3)c2)C1 [Example 22, 1-(3-(((S)-8-bromo-4-ethyl-1,1-dioxido-4,5-dihydrobenzo[f][1,2]thiazepin-2(3H)-yl)methyl)phenyl)-5-((1R,2R)-2-(1-methyl-1H-1,2,3-triazol-4-yl)cyclopropyl)-1H-pyrazole-4-carboxylic acid]",1 to 10
10 to 100,CC[C@@H]1CN(Cc2cc(-n3ncc(C(=O)O)c3C3C[C@H]3c3cn(C)nn3)ccc2C)S(=O)(=O)c2ccccc2O1 (some centres unmarked) [Example 25],1000 to 10000
